Reference: ChEMBL document CHEMBL4396912 (Eur J Med Chem, 2019)
The source made the active and inactive calls. The calls are words filed in the database; no cut-off is given here.

Tests used:
[1] = target: Insulin-degrading enzyme (Homo sapiens) (UniProt P14735); assay: Inhibition of human recombinant IDE expressed in Escherichia coli BL21 (DE3) cells using ATTO 655- Cys-Lys-Leu-Val-Phe-Phe-Ala-Glu-Asp-Trp as substrate at 100 uM preincubated for 10 mins followed by substrate addition and measured after 30 mins by spectrophotometric analysis relative to control
Insulin-degrading enzyme [2] = target: T1, Insulin-degrading enzyme (Homo sapiens, UniProt P14735); assay: Inhibition of human recombinant IDE expressed in Escherichia coli BL21 (DE3) cells using ATTO 655- Cys-Lys-Leu-Val-Phe-Phe-Ala-Glu-Asp-Trp as substrate preincubated for 10 mins followed by substrate addition and measured after 30 mins by spectrophotometric analysis
T1 sequence (P14735 whole entry): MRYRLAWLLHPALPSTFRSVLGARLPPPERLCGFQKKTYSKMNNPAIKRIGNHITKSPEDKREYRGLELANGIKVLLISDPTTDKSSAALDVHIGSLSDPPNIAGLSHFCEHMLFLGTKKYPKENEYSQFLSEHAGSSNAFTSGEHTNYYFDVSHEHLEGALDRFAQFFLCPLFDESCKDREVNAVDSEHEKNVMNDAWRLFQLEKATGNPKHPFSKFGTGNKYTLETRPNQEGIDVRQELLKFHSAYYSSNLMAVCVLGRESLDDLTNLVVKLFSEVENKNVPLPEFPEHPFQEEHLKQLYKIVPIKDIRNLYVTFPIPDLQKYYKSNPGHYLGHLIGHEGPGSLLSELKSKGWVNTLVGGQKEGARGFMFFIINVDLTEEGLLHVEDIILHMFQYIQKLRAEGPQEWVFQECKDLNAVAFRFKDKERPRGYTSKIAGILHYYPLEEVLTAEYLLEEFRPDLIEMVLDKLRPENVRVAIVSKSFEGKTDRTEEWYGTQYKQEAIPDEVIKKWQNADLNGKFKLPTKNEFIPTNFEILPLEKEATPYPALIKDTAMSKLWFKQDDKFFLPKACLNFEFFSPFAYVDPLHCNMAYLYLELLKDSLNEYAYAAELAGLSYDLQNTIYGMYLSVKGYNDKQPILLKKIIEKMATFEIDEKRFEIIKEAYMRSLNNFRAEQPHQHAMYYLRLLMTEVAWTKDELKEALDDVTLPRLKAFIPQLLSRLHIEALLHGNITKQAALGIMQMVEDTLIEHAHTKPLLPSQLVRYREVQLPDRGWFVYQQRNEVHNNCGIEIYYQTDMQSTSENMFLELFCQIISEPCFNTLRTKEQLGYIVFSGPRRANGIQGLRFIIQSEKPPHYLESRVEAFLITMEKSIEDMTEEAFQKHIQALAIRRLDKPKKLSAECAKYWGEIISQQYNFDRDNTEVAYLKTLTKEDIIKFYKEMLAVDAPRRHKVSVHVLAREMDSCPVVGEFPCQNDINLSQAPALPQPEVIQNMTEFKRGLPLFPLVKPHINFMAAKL

[3] = target: Insulin-degrading enzyme (Homo sapiens) (UniProt P14735); details: HepG2, 30 uM
[4] = target: Insulin-degrading enzyme (Homo sapiens) (UniProt P14735); assay: Irreversible inhibition of human recombinant IDE expressed in Escherichia coli BL21 (DE3) cells using ATTO 655- Cys-Lys-Leu-Val-Phe-Phe-Ala-Glu-Asp-Trp as substrate preincubated for 30 mins followed by 100 fold compound dilution by spectrophotometric analysis
[5] = target: Insulin-degrading enzyme (Homo sapiens) (UniProt P14735); details: 2 mM
Insulin-degrading enzyme [6] = target: Insulin-degrading enzyme (Homo sapiens, UniProt P14735, C110L/C171S/C178A/C257V/C414L/C573N/C590S/C789S/C812A/C819A/C904S/C966N/C974A); assay: biochemical
Insulin-degrading enzyme (Homo sapiens, UniProt P14735, C110L/C171S/C178A/C257V/C414L/C573N/C590S/C789S/C812A/C819A/C904S/C966N/C974A), sequence (P14735 whole entry C110L/C171S/C178A/C257V/C414L/C573N/C590S/C789S/C812A/C819A/C904S/C966N/C974A): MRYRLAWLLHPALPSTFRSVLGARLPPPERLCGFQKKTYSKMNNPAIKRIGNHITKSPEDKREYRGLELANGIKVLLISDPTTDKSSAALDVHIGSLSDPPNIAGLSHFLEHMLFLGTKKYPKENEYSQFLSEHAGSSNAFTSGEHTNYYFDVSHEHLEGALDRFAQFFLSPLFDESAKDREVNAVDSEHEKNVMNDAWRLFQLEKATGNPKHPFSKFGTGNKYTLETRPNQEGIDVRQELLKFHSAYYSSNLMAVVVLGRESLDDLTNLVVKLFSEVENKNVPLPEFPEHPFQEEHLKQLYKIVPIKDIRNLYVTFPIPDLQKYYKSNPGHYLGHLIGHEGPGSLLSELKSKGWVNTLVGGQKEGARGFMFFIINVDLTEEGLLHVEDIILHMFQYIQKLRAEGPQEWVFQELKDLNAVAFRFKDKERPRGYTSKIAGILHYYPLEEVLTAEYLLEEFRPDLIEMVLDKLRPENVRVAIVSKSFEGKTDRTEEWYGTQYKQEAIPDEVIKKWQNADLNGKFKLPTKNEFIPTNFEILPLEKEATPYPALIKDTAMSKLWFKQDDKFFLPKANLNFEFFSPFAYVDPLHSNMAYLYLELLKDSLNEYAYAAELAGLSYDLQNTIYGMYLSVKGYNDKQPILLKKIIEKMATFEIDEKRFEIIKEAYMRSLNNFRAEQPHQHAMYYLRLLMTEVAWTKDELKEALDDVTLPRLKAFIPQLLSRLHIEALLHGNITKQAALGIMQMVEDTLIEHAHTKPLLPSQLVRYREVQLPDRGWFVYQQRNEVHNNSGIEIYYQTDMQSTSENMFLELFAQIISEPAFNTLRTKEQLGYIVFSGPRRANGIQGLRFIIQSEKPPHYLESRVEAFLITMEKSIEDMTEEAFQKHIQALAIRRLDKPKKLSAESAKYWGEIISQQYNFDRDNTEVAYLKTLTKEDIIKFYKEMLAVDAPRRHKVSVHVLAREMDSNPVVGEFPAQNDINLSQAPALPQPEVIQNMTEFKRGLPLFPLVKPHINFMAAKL

COc1ccnc(C[S+]([O-])c2nc3cc(OC(F)F)ccc3[nH]2)c1OC (configuration not stated)
inhibition [1]: 0%

COCCCOc1ccnc(C[S+]([O-])c2nc3ccccc3[nH]2)c1C (configuration not stated) [RABEPRAZOLE]
IC50 (Insulin-degrading enzyme [2]): 11 µM | inhibition [1]: 98%

COc1ccc2[nH]c([S+]([O-])Cc3ncc(C)c(OC)c3C)nc2c1 (configuration not stated)
inhibition [1]: 41%

COc1ccc2[nH]c([S+]([O-])Cc3ncc(C)c(OC)c3C)nc2n1 (configuration not stated)
inhibition [1]: 35%

O=c1c2ccccc2[se]n1-c1ccccc1
deltaT [3]: 1.3 °C

O=c1c(O)c(-c2cc(O)c(O)c(O)c2)oc2cc(O)cc(O)c12 [MYRICETIN]
IC50 (Insulin-degrading enzyme [2]): 100 µM

CCN1C(=O)C=CC1=O
inhibition [4]: Active

Cc1c(OCC(F)(F)F)ccnc1C[S+]([O-])c1nc2ccccc2[nH]1 (configuration not stated)
inhibition [1]: 38%

O=C(O)CN(CCN(CC(=O)O)CC(=O)O)CC(=O)O
inhibition [5]: 100%

O=C(C[C@@H](Cc1ccc2ccccc2c1)n1cc(CNC(=O)c2ccc(F)cc2)nn1)NO
IC50 (Insulin-degrading enzyme [6]): 330 nM | deltaT [3]: 6.4 °C
